# Results from ChEMBL document CHEMBL4428102, “Discovery of an Orally Bioavailable Gonadotropin-Releasing Hormone Receptor Antagonist” (J Med Chem, 2016).
# Target: T1, Gonadotropin-releasing hormone receptor (Homo sapiens, UniProt P30968)
# T1 sequence (P30968 whole entry): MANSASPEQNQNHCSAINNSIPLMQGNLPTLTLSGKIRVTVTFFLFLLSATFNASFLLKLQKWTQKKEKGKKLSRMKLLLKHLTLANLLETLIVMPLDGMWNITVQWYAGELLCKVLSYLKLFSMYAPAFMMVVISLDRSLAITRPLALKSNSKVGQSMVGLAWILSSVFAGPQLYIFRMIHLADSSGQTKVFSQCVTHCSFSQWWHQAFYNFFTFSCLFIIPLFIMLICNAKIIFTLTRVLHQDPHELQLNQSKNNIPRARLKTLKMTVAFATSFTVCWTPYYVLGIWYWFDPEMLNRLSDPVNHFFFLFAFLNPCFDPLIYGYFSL
# Experiment: Displacement of [125I]D-Trp6-LHRH from human GnRH receptor expressed in CHO-K1 cell membranes incubated for 1 hr by competitive binding assay
# Conditions: not given
row,SMILES,IC50 [nM]
1,Cc1c(N2CCN(Cc3cscn3)CC2)c(=O)n(C[C@H](N)c2ccccc2)c(=O)n1Cc1c(F)cccc1C(F)(F)F,35.6
2,Cc1ncccc1CN1CCN(c2c(C)n(Cc3c(F)cccc3C(F)(F)F)c(=O)n(C[C@H](N)c3ccccc3)c2=O)CC1,5.11
3,Cc1c(N2CCN(Cc3cccnc3F)CC2)c(=O)n(C[C@H](N)c2ccccc2)c(=O)n1Cc1c(F)cccc1C(F)(F)F,1.07
4,Cc1c(N2CCN(Cc3ccco3)CC2)c(=O)n(C[C@H](N)c2ccccc2)c(=O)n1Cc1c(F)cccc1C(F)(F)F,2.76
5,Cc1c(N2CCN(Cc3ccc(C#N)cc3)CC2)c(=O)n(C[C@H](N)c2ccccc2)c(=O)n1Cc1c(F)cccc1C(F)(F)F,1.16
6,Cc1c(N2CCN(Cc3cccs3)CC2)c(=O)n(C[C@H](N)c2ccccc2)c(=O)n1Cc1c(F)cccc1C(F)(F)F,1.27
7,Cc1c(N2CCN(Cc3cncc(F)c3)CC2)c(=O)n(C[C@H](N)c2ccccc2)c(=O)n1Cc1c(F)cccc1C(F)(F)F,2
8,Cc1c(N2CCN(Cc3cccnc3)CC2)c(=O)n(C[C@H](N)c2ccccc2)c(=O)n1Cc1c(F)cccc1C(F)(F)F,2
9,Cc1c(N2CCN(Cc3cccc([N+](=O)[O-])c3)CC2)c(=O)n(C[C@H](N)c2ccccc2)c(=O)n1Cc1c(F)cccc1F,2.9
10,Cc1c(N2CCN(Cc3ccon3)CC2)c(=O)n(C[C@H](N)c2ccccc2)c(=O)n1Cc1c(F)cccc1C(F)(F)F,14.1
11,Cc1c(N2CCN(Cc3cncs3)CC2)c(=O)n(C[C@H](N)c2ccccc2)c(=O)n1Cc1c(F)cccc1C(F)(F)F,8.94
12,Cc1c(N2CCN(Cc3cnccn3)CC2)c(=O)n(C[C@H](N)c2ccccc2)c(=O)n1Cc1c(F)cccc1C(F)(F)F,20
13,Cc1c(N2CCN(Cc3cccnc3Cl)CC2)c(=O)n(C[C@H](N)c2ccccc2)c(=O)n1Cc1c(F)cccc1C(F)(F)F,2.57
14,Cc1c(N2CCN(Cc3nc4ccccc4s3)CC2)c(=O)n(C[C@H](N)c2ccccc2)c(=O)n1Cc1c(F)cccc1C(F)(F)F,48
15,Cc1cncc(CN2CCN(c3c(C)n(Cc4c(F)cccc4C(F)(F)F)c(=O)n(C[C@H](N)c4ccccc4)c3=O)CC2)c1,7.18

# Now those with a lower IC50, led by results:
row,IC50 [nM],SMILES
1,1,Cc1c(N2CCN(Cc3cccc(OC(F)(F)F)c3)CC2)c(=O)n(C[C@H](N)c2ccccc2)c(=O)n1Cc1c(F)cccc1C(F)(F)F
2,1,Cc1c(N2CCN(Cc3ccccc3F)CC2)c(=O)n(C[C@H](N)c2ccccc2)c(=O)n1Cc1c(F)cccc1C(F)(F)F
3,0.6,Cc1c(N2CCN(Cc3cccc4nonc34)CC2)c(=O)n(C[C@H](N)c2ccccc2)c(=O)n1Cc1c(F)cccc1C(F)(F)F
4,0.41,Cc1c(N2CCN(Cc3cccc(C#N)c3)CC2)c(=O)n(C[C@H](N)c2ccccc2)c(=O)n1Cc1c(F)cccc1C(F)(F)F
5,0.39,Cc1c(N2CCN(Cc3cccc(F)c3F)CC2)c(=O)n(C[C@H](N)c2ccccc2)c(=O)n1Cc1c(F)cccc1C(F)(F)F
6,0.31,COC(=O)c1ccc(CN2CCN(c3c(C)n(Cc4c(F)cccc4C(F)(F)F)c(=O)n(C[C@H](N)c4ccccc4)c3=O)CC2)o1
7,0.17,Cc1c(N2CCN(Cc3ccc(C#N)o3)CC2)c(=O)n(C[C@H](N)c2ccccc2)c(=O)n1Cc1c(F)cccc1C(F)(F)F
8,0.14,Cc1c(N2CCN(Cc3cccc([N+](=O)[O-])c3)CC2)c(=O)n(C[C@H](N)c2ccccc2OCCCC(=O)O)c(=O)n1Cc1c(F)cccc1C(F)(F)F

# Target: T1, Gonadotropin-releasing hormone receptor
# Experiment: Antagonist activity against human GnRH receptor expressed in HEK293 cells co-transfected with pGL4-NFAT promoter AP1-luc assessed as inhibition of 20 nM GnRH-induced NFAT activation pre-incubated for 1 hr before GnRH stimulation and measured after 6 hrs by luciferase reporter gene assay
# Type: cell-based
# Conditions: not given
row,SMILES,IC50 [nM]
1,Cc1c(N2CCN(Cc3cscn3)CC2)c(=O)n(C[C@H](N)c2ccccc2)c(=O)n1Cc1c(F)cccc1C(F)(F)F,2130
2,Cc1ncccc1CN1CCN(c2c(C)n(Cc3c(F)cccc3C(F)(F)F)c(=O)n(C[C@H](N)c3ccccc3)c2=O)CC1,543
3,Cc1c(N2CCN(Cc3cccnc3F)CC2)c(=O)n(C[C@H](N)c2ccccc2)c(=O)n1Cc1c(F)cccc1C(F)(F)F,193
4,Cc1c(N2CCN(Cc3ccco3)CC2)c(=O)n(C[C@H](N)c2ccccc2)c(=O)n1Cc1c(F)cccc1C(F)(F)F,> 1000
5,Cc1c(N2CCN(Cc3ccc(C#N)cc3)CC2)c(=O)n(C[C@H](N)c2ccccc2)c(=O)n1Cc1c(F)cccc1C(F)(F)F,326
6,Cc1c(N2CCN(Cc3cccs3)CC2)c(=O)n(C[C@H](N)c2ccccc2)c(=O)n1Cc1c(F)cccc1C(F)(F)F,> 1000
7,Cc1c(N2CCN(Cc3cncc(F)c3)CC2)c(=O)n(C[C@H](N)c2ccccc2)c(=O)n1Cc1c(F)cccc1C(F)(F)F,1510
8,Cc1c(N2CCN(Cc3cccnc3)CC2)c(=O)n(C[C@H](N)c2ccccc2)c(=O)n1Cc1c(F)cccc1C(F)(F)F,290
9,Cc1c(N2CCN(Cc3cccc([N+](=O)[O-])c3)CC2)c(=O)n(C[C@H](N)c2ccccc2)c(=O)n1Cc1c(F)cccc1F,401
10,Cc1c(N2CCN(Cc3ccon3)CC2)c(=O)n(C[C@H](N)c2ccccc2)c(=O)n1Cc1c(F)cccc1C(F)(F)F,> 1000
11,Cc1c(N2CCN(Cc3cncs3)CC2)c(=O)n(C[C@H](N)c2ccccc2)c(=O)n1Cc1c(F)cccc1C(F)(F)F,930
12,Cc1c(N2CCN(Cc3cnccn3)CC2)c(=O)n(C[C@H](N)c2ccccc2)c(=O)n1Cc1c(F)cccc1C(F)(F)F,2050
13,Cc1c(N2CCN(Cc3cccnc3Cl)CC2)c(=O)n(C[C@H](N)c2ccccc2)c(=O)n1Cc1c(F)cccc1C(F)(F)F,526
14,Cc1c(N2CCN(Cc3nc4ccccc4s3)CC2)c(=O)n(C[C@H](N)c2ccccc2)c(=O)n1Cc1c(F)cccc1C(F)(F)F,4900
15,Cc1cncc(CN2CCN(c3c(C)n(Cc4c(F)cccc4C(F)(F)F)c(=O)n(C[C@H](N)c4ccccc4)c3=O)CC2)c1,1180

# Further lines, results first:
row,IC50 [nM],SMILES
1,250,Cc1c(N2CCN(Cc3cccc(OC(F)(F)F)c3)CC2)c(=O)n(C[C@H](N)c2ccccc2)c(=O)n1Cc1c(F)cccc1C(F)(F)F
2,340,Cc1c(N2CCN(Cc3ccccc3F)CC2)c(=O)n(C[C@H](N)c2ccccc2)c(=O)n1Cc1c(F)cccc1C(F)(F)F
3,885,Cc1c(N2CCN(Cc3cccc4nonc34)CC2)c(=O)n(C[C@H](N)c2ccccc2)c(=O)n1Cc1c(F)cccc1C(F)(F)F
4,213,Cc1c(N2CCN(Cc3cccc(C#N)c3)CC2)c(=O)n(C[C@H](N)c2ccccc2)c(=O)n1Cc1c(F)cccc1C(F)(F)F
5,266,Cc1c(N2CCN(Cc3cccc(F)c3F)CC2)c(=O)n(C[C@H](N)c2ccccc2)c(=O)n1Cc1c(F)cccc1C(F)(F)F
6,64,COC(=O)c1ccc(CN2CCN(c3c(C)n(Cc4c(F)cccc4C(F)(F)F)c(=O)n(C[C@H](N)c4ccccc4)c3=O)CC2)o1
7,103,Cc1c(N2CCN(Cc3ccc(C#N)o3)CC2)c(=O)n(C[C@H](N)c2ccccc2)c(=O)n1Cc1c(F)cccc1C(F)(F)F
8,26.9,Cc1c(N2CCN(Cc3cccc([N+](=O)[O-])c3)CC2)c(=O)n(C[C@H](N)c2ccccc2OCCCC(=O)O)c(=O)n1Cc1c(F)cccc1C(F)(F)F

# Target: CYP3A4 (Homo sapiens, UniProt P08684)
# Sequence (P08684 whole entry): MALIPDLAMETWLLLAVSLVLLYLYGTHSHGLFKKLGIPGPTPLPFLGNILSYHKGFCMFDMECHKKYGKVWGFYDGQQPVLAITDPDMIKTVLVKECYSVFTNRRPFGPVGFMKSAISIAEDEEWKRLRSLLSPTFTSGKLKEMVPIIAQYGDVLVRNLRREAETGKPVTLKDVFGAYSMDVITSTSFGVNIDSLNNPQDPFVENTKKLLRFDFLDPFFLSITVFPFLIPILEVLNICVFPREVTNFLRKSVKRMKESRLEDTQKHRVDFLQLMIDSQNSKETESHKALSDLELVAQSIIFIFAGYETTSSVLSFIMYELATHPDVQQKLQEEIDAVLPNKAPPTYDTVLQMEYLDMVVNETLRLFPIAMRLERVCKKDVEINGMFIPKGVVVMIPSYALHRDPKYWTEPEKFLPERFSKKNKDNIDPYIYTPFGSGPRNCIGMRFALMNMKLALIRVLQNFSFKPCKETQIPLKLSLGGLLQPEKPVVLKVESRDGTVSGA
# Experiment: Inhibition of human recombinant CYP3A4 expressed in baculosomes at 10 uM incubated for 30 mins using BOMR substrate by fluorescence based assay
# Type: ADME
# Conditions: probe BOMR
row,"inhibition at 0.5 h, 10 µM [%]",SMILES
1,57,Cc1c(N2CCN(Cc3cccc([N+](=O)[O-])c3)CC2)c(=O)n(C[C@H](N)c2ccccc2OCCCC(=O)O)c(=O)n1Cc1c(F)cccc1C(F)(F)F
